Among the data in ChEMBL document CHEMBL5465560, “Selectivity Literature for EUbOPEN Chemogenomic Library” (2024) are % of inhibition and % of control values, retold here.

Experiment [1] addresses RAC-gamma serine/threonine-protein kinase (Homo sapiens, UniProt Q9Y243). The experiment in a line: Selectivity interaction (Rxn Biology Kinase assay) EUB0001632a AKT3. As to conditions: at 10 µM.
For experiment [2], the target named is Ribosomal protein S6 kinase alpha-2 (Homo sapiens) (UniProt Q15349). The experiment in a line: Selectivity interaction (Ambit KINOMEscan and KiNATiv profiling in Jurkat cells) EUB0000090b RPS6KA2. It is filed as cell-based. Conditions: at 1 µM.
Sequence of Ribosomal protein S6 kinase alpha-2 (Homo sapiens) (Q15349 whole entry): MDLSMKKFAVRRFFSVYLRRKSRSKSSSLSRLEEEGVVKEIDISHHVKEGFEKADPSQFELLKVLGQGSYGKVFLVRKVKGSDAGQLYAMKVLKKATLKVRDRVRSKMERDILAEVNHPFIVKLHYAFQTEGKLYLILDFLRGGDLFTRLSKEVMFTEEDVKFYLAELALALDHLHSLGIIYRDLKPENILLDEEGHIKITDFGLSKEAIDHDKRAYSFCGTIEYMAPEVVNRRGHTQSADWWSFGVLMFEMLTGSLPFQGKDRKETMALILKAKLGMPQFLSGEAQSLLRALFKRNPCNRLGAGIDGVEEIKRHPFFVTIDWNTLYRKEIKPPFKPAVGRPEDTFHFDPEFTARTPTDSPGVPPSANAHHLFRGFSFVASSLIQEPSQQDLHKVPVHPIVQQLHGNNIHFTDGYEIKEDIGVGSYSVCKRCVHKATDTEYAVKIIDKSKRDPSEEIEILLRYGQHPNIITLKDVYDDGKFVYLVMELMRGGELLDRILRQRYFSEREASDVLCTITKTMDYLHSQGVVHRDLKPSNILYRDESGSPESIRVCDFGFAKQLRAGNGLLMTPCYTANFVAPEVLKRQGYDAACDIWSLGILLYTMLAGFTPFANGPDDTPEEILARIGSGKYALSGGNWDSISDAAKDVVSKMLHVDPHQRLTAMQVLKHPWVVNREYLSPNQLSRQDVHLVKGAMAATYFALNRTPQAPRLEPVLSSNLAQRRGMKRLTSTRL
Experiment [3] concerns Tyrosine-protein kinase ABL1 (Homo sapiens), P00519 [H396P]. As to conditions: at 10 µM.
Experiment [4] concerns the target Tyrosine-protein kinase JAK1 (Homo sapiens, UniProt P23458). The experiment in a line: Selectivity interaction (KinomeScan (DiscoverX)) EUB0000655a JAK1. Conditions: at 10 µM.
The target in experiment [5] is T1, Homeodomain-interacting protein kinase 1 (Homo sapiens, UniProt Q86Z02). The experiment in a line: Selectivity interaction (KinomeScan (DiscoverX)) EUB0001079a HIPK1. As to conditions: at 1 µM.
T1 sequence (Q86Z02 whole entry, looked up): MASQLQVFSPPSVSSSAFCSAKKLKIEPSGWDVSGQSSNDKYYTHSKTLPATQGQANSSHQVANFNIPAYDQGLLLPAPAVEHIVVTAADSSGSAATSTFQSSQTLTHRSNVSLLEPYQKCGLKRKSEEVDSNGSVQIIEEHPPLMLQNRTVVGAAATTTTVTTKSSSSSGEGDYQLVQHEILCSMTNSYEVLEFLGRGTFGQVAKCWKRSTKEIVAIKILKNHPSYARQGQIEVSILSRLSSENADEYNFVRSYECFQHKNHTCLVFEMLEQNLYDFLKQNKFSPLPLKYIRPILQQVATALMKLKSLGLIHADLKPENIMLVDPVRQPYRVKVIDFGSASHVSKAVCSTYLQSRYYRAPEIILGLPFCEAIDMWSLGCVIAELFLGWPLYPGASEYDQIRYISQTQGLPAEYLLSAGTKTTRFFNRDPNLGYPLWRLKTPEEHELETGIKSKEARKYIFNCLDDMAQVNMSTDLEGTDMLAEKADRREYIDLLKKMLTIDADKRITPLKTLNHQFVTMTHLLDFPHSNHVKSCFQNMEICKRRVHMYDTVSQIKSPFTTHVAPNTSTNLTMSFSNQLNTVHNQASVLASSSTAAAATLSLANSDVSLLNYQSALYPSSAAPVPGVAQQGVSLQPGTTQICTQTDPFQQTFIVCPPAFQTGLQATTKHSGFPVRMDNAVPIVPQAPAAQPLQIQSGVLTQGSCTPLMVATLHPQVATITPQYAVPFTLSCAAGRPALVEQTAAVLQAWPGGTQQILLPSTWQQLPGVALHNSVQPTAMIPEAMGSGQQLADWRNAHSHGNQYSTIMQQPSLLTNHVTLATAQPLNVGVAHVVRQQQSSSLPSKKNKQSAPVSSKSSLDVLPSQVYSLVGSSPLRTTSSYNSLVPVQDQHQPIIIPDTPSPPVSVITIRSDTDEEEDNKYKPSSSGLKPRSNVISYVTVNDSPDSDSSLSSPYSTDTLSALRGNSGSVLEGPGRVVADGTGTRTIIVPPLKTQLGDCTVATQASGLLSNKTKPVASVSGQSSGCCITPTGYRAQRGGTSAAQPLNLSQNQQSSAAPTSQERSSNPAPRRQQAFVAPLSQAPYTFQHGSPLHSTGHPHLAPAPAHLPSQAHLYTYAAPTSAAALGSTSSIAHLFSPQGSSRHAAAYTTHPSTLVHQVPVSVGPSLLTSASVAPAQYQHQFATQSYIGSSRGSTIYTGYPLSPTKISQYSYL
In experiment [6] the test system is Mast/stem cell growth factor receptor Kit (Homo sapiens), P10721 [A829P]. The experiment in a line: (§1) Selectivity interaction (KinomeScan (DiscoverX)) EUB0001619a KIT. As to conditions: at 1 µM.
Sequence of Mast/stem cell growth factor receptor Kit (Homo sapiens), P10721 [A829P] (P10721 whole entry A829P): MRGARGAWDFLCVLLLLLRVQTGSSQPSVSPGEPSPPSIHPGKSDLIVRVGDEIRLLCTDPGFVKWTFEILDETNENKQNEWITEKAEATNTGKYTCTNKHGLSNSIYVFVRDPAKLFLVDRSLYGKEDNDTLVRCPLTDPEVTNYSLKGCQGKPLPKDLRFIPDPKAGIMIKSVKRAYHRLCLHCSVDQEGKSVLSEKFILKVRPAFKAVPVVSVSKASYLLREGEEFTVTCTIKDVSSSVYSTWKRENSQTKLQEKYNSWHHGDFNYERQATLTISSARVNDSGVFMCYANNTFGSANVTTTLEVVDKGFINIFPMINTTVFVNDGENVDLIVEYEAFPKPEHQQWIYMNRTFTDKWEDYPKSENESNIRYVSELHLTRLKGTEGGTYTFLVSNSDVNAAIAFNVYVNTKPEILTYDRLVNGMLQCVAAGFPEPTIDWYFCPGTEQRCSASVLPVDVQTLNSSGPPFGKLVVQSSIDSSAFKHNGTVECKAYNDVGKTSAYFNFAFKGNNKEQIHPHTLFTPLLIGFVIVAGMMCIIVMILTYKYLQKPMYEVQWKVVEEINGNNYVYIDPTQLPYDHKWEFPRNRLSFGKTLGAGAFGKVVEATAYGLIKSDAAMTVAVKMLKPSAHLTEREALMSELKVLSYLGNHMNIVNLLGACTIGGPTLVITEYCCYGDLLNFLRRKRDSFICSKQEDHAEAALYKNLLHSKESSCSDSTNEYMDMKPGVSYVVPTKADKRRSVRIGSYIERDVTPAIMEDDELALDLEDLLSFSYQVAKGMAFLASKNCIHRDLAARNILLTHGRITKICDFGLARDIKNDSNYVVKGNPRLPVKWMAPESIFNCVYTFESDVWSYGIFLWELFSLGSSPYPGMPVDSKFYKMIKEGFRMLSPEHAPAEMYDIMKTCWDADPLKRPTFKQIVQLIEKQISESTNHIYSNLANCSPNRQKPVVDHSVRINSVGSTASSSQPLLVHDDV
Experiment [7] concerns Mast/stem cell growth factor receptor Kit (Homo sapiens), P10721 [V559D,V654A]. The experiment is described as §1. Conditions: at 1 µM.
For experiment [8], the system named is Mast/stem cell growth factor receptor Kit (Homo sapiens), P10721 [D816H]. The experiment is described as §1. Conditions: at 1 µM.
In experiment [9] the test system is Mast/stem cell growth factor receptor Kit (Homo sapiens), P10721 [V559D]. The experiment is described as §1. Conditions: at 1 µM.
The target of experiment [10] is Mast/stem cell growth factor receptor Kit (Homo sapiens, UniProt P10721). The description is as §1. As to conditions: at 1 µM.
Experiment [11] has as its system Mast/stem cell growth factor receptor Kit (Homo sapiens), P10721 [V559D,T670I]. The experiment is described as §1. Conditions: at 1 µM.
Experiment [12] deals with Mast/stem cell growth factor receptor Kit (Homo sapiens), P10721 [D816V]. Described as §1. As to conditions: at 1 µM.
Experiment [13] relates to Mast/stem cell growth factor receptor Kit (Homo sapiens), P10721 [L576P]. The description is as §1. As to conditions: at 1 µM.
In experiment [14] the target is T2, G protein-coupled receptor kinase 3 (Homo sapiens) (UniProt P35626).
T2 sequence (whole entry): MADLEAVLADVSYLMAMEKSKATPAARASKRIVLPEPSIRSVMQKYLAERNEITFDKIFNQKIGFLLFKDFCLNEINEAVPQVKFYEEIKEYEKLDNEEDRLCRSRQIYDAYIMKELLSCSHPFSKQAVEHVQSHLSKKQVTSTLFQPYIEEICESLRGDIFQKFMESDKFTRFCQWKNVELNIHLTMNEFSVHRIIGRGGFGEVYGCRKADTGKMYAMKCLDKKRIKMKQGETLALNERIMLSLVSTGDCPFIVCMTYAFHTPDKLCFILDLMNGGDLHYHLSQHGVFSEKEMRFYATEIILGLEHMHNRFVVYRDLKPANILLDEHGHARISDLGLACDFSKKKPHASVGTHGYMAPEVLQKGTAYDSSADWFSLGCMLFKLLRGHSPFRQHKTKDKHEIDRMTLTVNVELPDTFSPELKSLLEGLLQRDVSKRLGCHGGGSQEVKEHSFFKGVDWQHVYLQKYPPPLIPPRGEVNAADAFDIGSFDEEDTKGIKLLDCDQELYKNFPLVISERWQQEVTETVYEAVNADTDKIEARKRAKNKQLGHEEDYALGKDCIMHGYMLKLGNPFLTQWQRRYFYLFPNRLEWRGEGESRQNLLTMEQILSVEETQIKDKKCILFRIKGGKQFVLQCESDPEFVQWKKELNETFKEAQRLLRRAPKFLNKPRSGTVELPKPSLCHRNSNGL
The experiment in a line: Selectivity interaction (Kinase panel (Invitrogen)) EUB0000639a ADRBK2. As to conditions: at 200 nM.

The target of experiment [15] is Homeodomain-interacting protein kinase 3 (Homo sapiens, UniProt Q9H422). The experiment in a line: Selectivity interaction (Kinase panel (Invitrogen)) EUB0000639a HIPK3. As to conditions: at 200 nM.
The target of experiment [16] is Non-receptor tyrosine-protein kinase TYK2 (Homo sapiens, UniProt P29597). The experiment in a line: Selectivity interaction (ActivX KiNativ screen (kinase selectivity in THP-1 cell lysates)) EUB0000639a TYK2. It is filed as subcellular. Conditions: lysate.
Sequence of Non-receptor tyrosine-protein kinase TYK2 (P29597 whole entry): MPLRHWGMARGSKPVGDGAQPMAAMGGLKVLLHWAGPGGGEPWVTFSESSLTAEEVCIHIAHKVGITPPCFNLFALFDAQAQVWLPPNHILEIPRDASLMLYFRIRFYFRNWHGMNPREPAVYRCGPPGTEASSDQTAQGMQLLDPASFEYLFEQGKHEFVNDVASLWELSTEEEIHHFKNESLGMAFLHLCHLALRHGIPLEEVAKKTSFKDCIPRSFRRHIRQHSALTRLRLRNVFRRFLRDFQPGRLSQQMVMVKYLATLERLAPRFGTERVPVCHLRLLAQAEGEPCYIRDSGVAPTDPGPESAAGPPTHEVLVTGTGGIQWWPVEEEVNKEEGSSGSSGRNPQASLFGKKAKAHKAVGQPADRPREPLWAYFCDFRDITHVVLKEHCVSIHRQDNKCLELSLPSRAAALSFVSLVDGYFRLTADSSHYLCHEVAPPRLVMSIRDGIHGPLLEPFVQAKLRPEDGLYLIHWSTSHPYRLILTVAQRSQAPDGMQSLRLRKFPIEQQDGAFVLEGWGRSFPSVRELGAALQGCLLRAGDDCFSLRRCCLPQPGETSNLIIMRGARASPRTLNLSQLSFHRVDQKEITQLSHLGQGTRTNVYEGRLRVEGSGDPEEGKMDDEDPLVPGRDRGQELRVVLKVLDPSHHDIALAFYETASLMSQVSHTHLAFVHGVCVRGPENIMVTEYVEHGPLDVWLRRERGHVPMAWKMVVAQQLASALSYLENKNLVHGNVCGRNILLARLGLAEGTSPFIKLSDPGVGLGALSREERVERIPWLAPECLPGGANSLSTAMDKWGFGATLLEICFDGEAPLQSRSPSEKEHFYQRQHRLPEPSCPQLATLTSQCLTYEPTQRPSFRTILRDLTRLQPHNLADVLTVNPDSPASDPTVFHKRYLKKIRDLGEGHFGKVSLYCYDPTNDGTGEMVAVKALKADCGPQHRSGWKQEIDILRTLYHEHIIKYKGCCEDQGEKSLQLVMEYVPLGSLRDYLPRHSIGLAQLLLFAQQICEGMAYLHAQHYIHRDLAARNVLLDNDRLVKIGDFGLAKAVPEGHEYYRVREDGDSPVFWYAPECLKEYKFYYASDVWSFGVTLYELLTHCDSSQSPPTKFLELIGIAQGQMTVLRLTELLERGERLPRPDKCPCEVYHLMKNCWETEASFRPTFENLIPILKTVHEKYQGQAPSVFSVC
Experiment [17] addresses Tyrosine-protein kinase HCK (Homo sapiens) (UniProt P08631). The experiment in a line: Selectivity interaction (Kinase screening (Nanosyn)) EUB0000604a HCK.
Experiment [18] deals with T1, Homeodomain-interacting protein kinase 1. The experiment in a line: Selectivity interaction (KinomeScan (DiscoverX)) EUB0000695a HIPK1. As to conditions: at 100 nM.
The target in experiment [19] is Cyclin-dependent kinase 4/cyclin D1 (Homo sapiens) (UniProt P11802+P24385). The experiment in a line: (§2) Selectivity interaction (ProQinase) EUB0000171b CDK4. The class given is protein-complex assay.
For experiment [20], the target named is CDK4/Cyclin D3 (Homo sapiens) (UniProt P11802+P30281). The experiment is described as §2. It is filed as protein-complex assay.
For experiment [21], the target named is Ribosomal protein S6 kinase alpha-2 (Homo sapiens) (UniProt Q15349). The experiment in a line: Selectivity interaction (ProQinase) EUB0000171b RPS6KA2.
Experiment [22] has as its target Ribosomal protein S6 kinase alpha-5 (Homo sapiens) (UniProt O75582). The experiment in a line: Selectivity interaction (KinomeScan (DiscoverX)) EUB0000092b RPS6KA5. As to conditions: at 10 µM.
In experiment [23] the target is T3, Serine/threonine-protein kinase BRSK1 (Homo sapiens) (UniProt Q8TDC3).
T3 sequence (whole entry): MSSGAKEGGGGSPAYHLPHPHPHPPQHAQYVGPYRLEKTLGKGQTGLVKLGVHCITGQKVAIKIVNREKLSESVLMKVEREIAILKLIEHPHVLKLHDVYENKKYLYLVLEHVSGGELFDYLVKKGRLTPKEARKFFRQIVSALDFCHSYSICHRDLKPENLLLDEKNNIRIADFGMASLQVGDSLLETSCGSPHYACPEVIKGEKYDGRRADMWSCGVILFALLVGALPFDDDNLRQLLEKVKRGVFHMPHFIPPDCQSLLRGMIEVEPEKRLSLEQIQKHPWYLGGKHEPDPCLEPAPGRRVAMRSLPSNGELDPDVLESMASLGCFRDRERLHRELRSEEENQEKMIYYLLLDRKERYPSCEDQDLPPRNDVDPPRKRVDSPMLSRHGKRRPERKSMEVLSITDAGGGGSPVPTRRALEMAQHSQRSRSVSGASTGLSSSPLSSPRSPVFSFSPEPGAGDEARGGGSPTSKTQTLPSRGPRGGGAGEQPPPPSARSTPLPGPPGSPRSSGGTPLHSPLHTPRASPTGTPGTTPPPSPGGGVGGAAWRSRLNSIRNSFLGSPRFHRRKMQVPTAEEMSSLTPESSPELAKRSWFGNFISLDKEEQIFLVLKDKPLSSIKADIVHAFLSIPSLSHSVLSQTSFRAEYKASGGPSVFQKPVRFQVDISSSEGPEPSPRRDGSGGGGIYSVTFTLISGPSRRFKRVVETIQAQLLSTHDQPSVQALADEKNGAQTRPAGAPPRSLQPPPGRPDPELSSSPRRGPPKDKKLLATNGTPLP
The experiment in a line: Selectivity interaction (KinomeScan (DiscoverX)) EUB0000618a BRSK1. As to conditions: at 10 µM.

Sequence of Tyrosine-protein kinase HCK (Homo sapiens) (P08631 2-526 limits assumed): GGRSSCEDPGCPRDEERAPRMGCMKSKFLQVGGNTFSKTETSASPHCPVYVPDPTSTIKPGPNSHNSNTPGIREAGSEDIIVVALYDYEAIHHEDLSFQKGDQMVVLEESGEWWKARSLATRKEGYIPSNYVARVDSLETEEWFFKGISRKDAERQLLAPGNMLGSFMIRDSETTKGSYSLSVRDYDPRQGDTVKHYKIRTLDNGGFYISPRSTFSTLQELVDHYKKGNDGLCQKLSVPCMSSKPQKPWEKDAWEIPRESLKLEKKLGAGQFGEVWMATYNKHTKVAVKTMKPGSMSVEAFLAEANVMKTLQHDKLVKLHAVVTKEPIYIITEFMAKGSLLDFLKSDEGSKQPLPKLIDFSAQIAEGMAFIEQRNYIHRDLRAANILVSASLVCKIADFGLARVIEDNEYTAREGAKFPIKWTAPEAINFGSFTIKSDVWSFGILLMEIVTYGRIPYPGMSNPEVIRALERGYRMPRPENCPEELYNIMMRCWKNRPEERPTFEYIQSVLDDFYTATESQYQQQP

In experiment [1], `Cn1cc(-n2cnc3c(NCc4nc5cc(Cl)c(Cl)cc5[nH]4)nc(N4CCOCC4)nc32)cn1` registered a % of inhibition of 6.75%.
With `CN(C)C/C=C/C(=O)Nc1ccc(C(=O)N2CCCC(Nc3ncc(Cl)c(-c4c[nH]c5ccccc45)n3)C2)cc1` (stereo not given), the % of control in [2] worked out at 88%.
`Cc1cc([C@@H](C)Nc2ccccc2C(=O)O)c2nc(N3CCOCC3)cc(=O)n2c1` [AZD-6482] displayed a % of control in experiment [3] of 61%.
On to `CN(C)CCOc1ccc(-c2nc(-c3ccncc3)c(-c3ccc4c(c3)CC/C4=N\O)[nH]2)cc1`, for which, in [4], the % of control worked out at 0.5%.
`Nc1cnc(N2CCc3cc(S(=O)(=O)Nc4c(F)cc(Cl)cc4F)cc(N4CCCC4=O)c32)nc1` [TP-020n] registered a % of control in experiment [5] of 91%.
Regarding `N#Cc1cccc(-c2c[nH]c3ncnc(N4CCOCC4)c23)c1`, the % of control in [6] is 50%; in [7], 72%; in [8], 92%; in experiment [9], 100%; in experiment [10], 100%; in experiment [11] it was 100%. The results for the % of control in experiment [12] and in experiment [13] were 99% and 89%, respectively.
Regarding `CC[C@@H]1[C@H](F)C(=O)N[C@@H]1COc1nccc2cc(C(N)=O)c(OC)cc12` [ZIMLOVISERTIB], the % of inhibition in experiment [14] was 2.95%; in [15] it was 5.1%; in experiment [16] (at 0.01 µM) it was 1.5%; in experiment [16] (at 0.04 µM), 4%; in experiment [16] (at 0.2 µM), 2.3%; in experiment [16] (at 1 µM), 12.6%. Also, the % of inhibition in [16] (at 5 µM) was determined as 19.4%.
On to `Cc1cnc(Nc2ccc(F)cc2Cl)nc1-c1c[nH]c(C(=O)N[C@H](CO)c2cccc(Cl)c2)c1`, for which the % of inhibition in experiment [17] stood at 3%.
The molecule `Cc1cc(F)c(C(=O)Nc2cccc(-c3nncn3C(C)C)n2)cc1-n1cnc(C2CC2)c1` gave a % of control in experiment [18] of 100%.
As for `C=CC(=O)Nc1cccc(C(=O)Nc2ccc(Nc3cc(-c4[nH]c(SC)nc4C)ccn3)cc2)c1`, the % of control in experiment [19] (at 1 µM) was determined as 94%; in experiment [19] (at 5 µM), 76%; in experiment [20] (at 1 µM), 92%; in experiment [20] (at 5 µM), 83%; in experiment [21] (at 1 µM) it was 88%; in [21] (at 5 µM), 69%.
In the case of `CCC(=O)N1CCN(c2ccc(-n3c(=O)ccc4cnc5ccc(-c6cnc7ccccc7c6)cc5c43)cc2C(F)(F)F)CC1`, the % of control in [22] was determined as 100%.
`O[C@H]1CC[C@H](Nc2ncc3nc(Nc4c(F)cc(F)cc4F)n([C@H]4CCOC4)c3n2)CC1` gave a % of control in [23] of 86%.
